In the supplement of paper PMC10307832:

Experiments:
Assay in all cases: relative viability (nuclei count vs DMSO), 5 days (fraction); higher = more cells survive
[1] = compound: Nc1ncn([C@H]2C[C@H](O)[C@@H](CO)O2)c(=O)n1 [Decitabine] + C[C@@H](Oc1cc(-c2cnn(C3CCNCC3)c2)cnc1N)c1c(Cl)ccc(F)c1Cl [Crizotinib] (partner 1 µM)
How it was run: (§1)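 Relative viability divides the nuclei count in treated wells by that in vehicle wells. Lung cancer cell lines were seeded in 1536-well plates, dosed by pin tool the next day, and fixed and stained after 5 days in one step with final 0.05% Triton X-100, 1% formaldehyde and 1 ug/ml Hoechst. Dosing was a single drug or a fixed anchor-drug dose plus five library-drug doses (not always all listed) in √10 steps, and values are medians of duplicate plates imaged at 4×.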

[2] = compound: Nc1ncn([C@H]2C[C@H](O)[C@@H](CO)O2)c(=O)n1 [Decitabine] + Cc1cc(Nc2cc(N3CCN(C)CC3)nc(Sc3ccc(NC(=O)C4CC4)cc3)n2)n[nH]1 [Tozasertib] (partner 0.1 µM)
How it was run: as §1

[3] = compound: O=C(C[C@H]1NCCC[C@@H]1O)Cn1cnc2cc(Br)c(Cl)cc2c1=O (racemic) [Halofuginone] + CC1(C)CCC(c2ccc(Cl)cc2)=C(CN2CCN(c3ccc(C(=O)NS(=O)(=O)c4ccc(N[C@H](CCN5CCOCC5)CSc5ccccc5)c(S(=O)(=O)C(F)(F)F)c4)cc3)CC2)C1 [Navitoclax] (partner 0.5 µM)
How it was run: as §1

[4] = compound: O=C(C[C@H]1NCCC[C@@H]1O)Cn1cnc2cc(Br)c(Cl)cc2c1=O (racemic) [Halofuginone] + O=C(CCCCCCC(=O)Nc1ccccc1)NO [Vorinostat] (partner 1 µM)
How it was run: as §1

Row | Cell Line | relative viability ([1]; first compound 0.04 µM) | relative viability ([1]; first compound 0.1265 µM) | relative viability ([1]; first compound 0.4 µM) | relative viability ([1]; first compound 1.265 µM) | relative viability ([1]; first compound 4 µM) | relative viability ([2]; first compound 0.04 µM) | relative viability ([2]; first compound 0.1265 µM) | relative viability ([2]; first compound 0.4 µM) | relative viability ([2]; first compound 1.265 µM) | relative viability ([2]; first compound 4 µM) | relative viability ([3]; first compound 0.001 µM) | relative viability ([3]; first compound 0.003162 µM) | relative viability ([3]; first compound 0.01 µM) | relative viability ([3]; first compound 0.03162 µM) | relative viability ([3]; first compound 0.1 µM) | relative viability ([4]; first compound 0.001 µM) | relative viability ([4]; first compound 0.003162 µM) | relative viability ([4]; first compound 0.01 µM) | relative viability ([4]; first compound 0.03162 µM) | relative viability ([4]; first compound 0.1 µM)
1 | NCI-H1755 | 0.762 | 0.811 | 0.804 | 0.53 | 0.317 | 0.525 | 0.538 | 0.473 | 0.372 | 0.357 | 0.958 | 1.01 | 0.995 | 1.01 | 0.596 | 0.758 | 0.838 | 0.722 | 0.768 | 0.669
2 | SK-MES-1 | 0.866 | 0.703 | 0.329 | 0.333 | 0.289 | 0.698 | 0.608 | 0.332 | 0.238 | 0.255 | 1.22 | 1.16 | 1.18 | 0.67 | 0.197 | 1.16 | 1.09 | 0.997 | 0.949 | 0.183
3 | NCI-H2126 | 0.827 | 0.837 | 0.666 | 0.555 | 0.52 | 0.648 | 0.606 | 0.425 | 0.451 | 0.399 | 0.87 | 0.822 | 0.824 | 0.824 | 0.831 | 0.903 | 0.762 | 0.784 | 0.74 | 0.562
4 | EPLC-272H | 0.587 | 0.587 |  | 0.414 | 0.402 |  | 0.307 | 0.0586 | 0.26 | 0.157 | 1.14 | 1.22 | 0.945 | 1.21 | 1.17 | 0.479 | 0.401 | 0.304 | 0.411 | 0.382
5 | NCI-H1975 | 0.491 | 0.355 | 0.312 | 0.305 | 0.28 | 0.279 | 0.239 | 0.132 | 0.152 | 0.129 | 1.2 | 1.08 | 1.1 | 0.554 | 0.205 | 0.744 | 0.697 | 0.441 | 0.47 | 0.179
6 | NCI-H3122 | 0.258 | 0.251 | 0.277 | 0.346 | 0.28 | 0.328 | 0.369 | 0.118 |  | 0.246 | 0.994 | 1.02 | 0.966 | 1.01 | 1.05 | 0.924 | 1.13 | 0.938 | 1.01 | 1.06
7 | COR-L 105 | 0.596 | 0.633 | 0.573 | 0.356 | 0.319 | 0.378 | 0.336 | 0.36 | 0.365 | 0.237 | 0.939 | 0.396 | 0.733 | 0.595 | 0.46 | 1.04 | 0.872 | 0.896 | 0.774 | 0.719
8 | BEN | 0.914 | 0.786 | 0.623 | 0.469 | 0.453 | 0.443 | 0.454 | 0.421 | 0.371 | 0.355 | 0.0684 | 0.132 | 0.0701 | 0.0526 | 0.0549 | 0.55 | 0.541 | 0.55 | 0.587 | 0.572
9 | NCI-H1915 | 0.314 | 0.285 | 0.217 | 0.194 | 0.201 | 0.274 | 0.224 | 0.174 | 0.175 | 0.189 | 0.776 | 0.785 | 0.8 | 0.756 | 0.771 | 0.531 | 0.554 | 0.561 | 0.472 | 0.511
10 | NCI-H1650 | 0.838 | 0.603 | 0.331 | 0.326 | 0.241 | 0.247 | 0.297 | 0.289 | 0.169 | 0.193 | 1.37 | 1.23 | 1.18 | 0.815 | 0.166 | 0.688 | 0.595 | 0.522 | 0.566 | 0.366
11 | NCI-H2009 | 0.846 | 0.639 | 0.464 | 0.281 | 0.25 | 0.628 | 0.451 | 0.399 | 0.312 | 0.252 | 1.22 | 1.13 | 1.09 | 1.02 | 0.67 | 0.86 | 0.703 | 0.76 | 0.703 | 0.462
12 | COR-L23 | 0.332 | 0.33 | 0.332 | 0.22 | 0.184 | 0.134 | 0.158 | 0.158 | 0.123 | 0.128 | 1.03 | 1.1 | 1.03 | 0.976 | 0.126 | 0.602 | 0.295 | 0.493 | 0.301 | 0.106
13 | NCI-H460 | 0.524 | 0.623 | 0.22 | 0.186 | 0.126 | 0.325 | 0.24 | 0.27 | 0.0551 | 0.0621 | 1.2 | 1.3 | 1.12 | 0.232 | 0.0111 | 0.675 | 0.756 | 0.744 | 0.495 | 0.176
14 | HCC-827 |  | 0.396 | 0.355 | 0.262 | 0.272 | 0.253 | 0.265 | 0.219 | 0.221 | 0.224 | 1.05 | 1.05 | 1.01 | 1.01 | 0.852 | 0.764 | 0.777 | 0.795 | 0.869 | 0.87
15 | NCI-H322M | 0.724 | 0.661 | 0.673 | 0.36 | 0.363 | 0.415 | 0.484 | 0.426 | 0.35 | 0.376 | 1.2 | 1.26 | 1.26 | 1.24 | 1.19 | 0.935 | 0.967 | 0.811 | 0.865 | 0.561
16 | NCI-H1666 | 0.7 | 0.75 | 0.708 | 0.512 | 0.46 | 0.514 | 0.577 | 0.615 | 0.502 | 0.517 | 1.1 | 0.885 | 0.962 | 1.01 | 0.419 | 1.14 | 0.966 | 0.999 | 0.984 | 0.955
